# Entries after “also recorded” stand apart in the source; their conditions may differ.
# Assays:
# [1] = Stability on storage, assay as percentage of initial value; format: physicochemical; conditions: for stability in the formulation (in words): conclusion from Table 5
# Excerpt: The data are reported as percentage of initial assay value.
# [2] = target: CB1 (Brain receptors) (Homo sapiens, UniProt P21554); conditions: cited from earlier work
# [3] = Table 3; Brown, 1998; cited from earlier work
# [4] = CBD given before THC, cognitive effects; format: in vivo; conditions: CBD (or CBDV) administered before THC; not observed if THC is given before CBD
# [5] = Solubility of cannabinoids
# [6] = Table 3 footnote; naïve patients may show postural hypotension, hypertension reported on prolonged usage; cited from earlier work
# [7] = Pain relief, THC alone vs extract of cannabis; format: in vivo; conditions: THC alone vs same quantity of THC given as an extract of cannabis
# [8] = Table 3 footnote; cited from earlier work
# [9] = Analgesic effect of THCV vs THC; format: in vivo; conditions: compared with THC
# [10] = Subject reports on THCV (mood enhancement, hangover); format: in vivo; conditions: compared with THC
# [11] = stated as known; cited from earlier work
# [12] = Absorption (AUC) of cannabinoid and primary metabolite in blood after dosing; conditions: after oropharyngeal (buccal) administration compared with sublingual
# CB1 (Brain receptors), sequence (P21554 whole entry, species assumed): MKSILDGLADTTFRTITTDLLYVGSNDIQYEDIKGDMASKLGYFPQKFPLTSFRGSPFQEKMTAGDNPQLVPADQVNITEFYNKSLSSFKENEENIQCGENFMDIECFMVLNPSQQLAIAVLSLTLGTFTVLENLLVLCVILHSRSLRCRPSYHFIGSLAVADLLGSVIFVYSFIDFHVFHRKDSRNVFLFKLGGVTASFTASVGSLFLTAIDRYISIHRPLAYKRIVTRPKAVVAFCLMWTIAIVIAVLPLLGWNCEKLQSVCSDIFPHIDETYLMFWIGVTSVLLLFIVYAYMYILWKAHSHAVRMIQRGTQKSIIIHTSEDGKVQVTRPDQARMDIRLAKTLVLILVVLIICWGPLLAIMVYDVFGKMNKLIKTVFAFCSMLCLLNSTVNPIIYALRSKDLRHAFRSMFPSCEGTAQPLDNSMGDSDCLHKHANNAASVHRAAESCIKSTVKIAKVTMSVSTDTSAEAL
structure (smiles),measurement,setting,value
"C=C(C)[C@@H]1CCC(C)=C[C@H]1c1c(O)cc(CCCCC)cc1O [CBD, cannabidiol]",stability in the formulation (in words),[1],good stability
same,effect as pharmaceutical stabilizer,[1]; observation of the applicants,able to act as a pharmaceutical stabilizer of pharmaceutical formulations and thus prolong shelf-life
same,CB1 (Brain receptors),[2],∀
same,Anti-inflammatory,[3],∀
same,psychoactive effects of THC,[4],diminished
same,subsequent sedation,[4],postponed and mitigated
same,solubility in aqueous excipients,[5],very low solubility
"CCCCCc1cc(O)c2c(c1)OC(C)(C)[C@@H]1CCC(C)=C[C@@H]21 [THC, Δ^9-tetrahydrocannabinol]",stability in the formulation (in words),[1],less stable
same,effect on blood pressure (footnote ′),[6],′ THC has a biphasic effect on blood pressure; in naïve patients it may produce postural hypotension and it has also been reported to produce hypertension on prolonged usage. GW Internal Report No 002/000159.
same,degree of pain relief,[7],lower degree of pain relief than the same quantity of THC given as an extract of cannabis
same,convulsant effect (footnote H to Anticonvulsant),[8],H THC is pro convulsant
same,Anti-inflammatory,[3],∀
same,solubility in aqueous excipients,[5],very low solubility
same,amount of THC that could be stabilised,[5]; aerosol sprays containing ethanol plus a propellant,0.7 mg of THC per 0.1 ml of liquid formulation
"CCCc1cc(O)c2c(c1)OC(C)(C)[C@@H]1CCC(C)=C[C@@H]21 [THCV, tetrahydrocannabinovarin]","analgesic effect, speed",[9],more rapid analgesic effect than THC
same,hangover,[10],less severe hangover; also recorded: reduced potential for hangover
same,mood enhancement,[10]; reported by subjects taking THCV,less disturbing than that produced by THC
CCCCCc1cc(O)c2c(c1)OC(C)(C)[C@@H]1CCC(CO)=C[C@@H]21 [11 OH THC],psychoactivity relative to parent compound,[11],possibly more psychoactive than the parent compound
same,reduction in the amount of 11 OH metabolite detected,[12],approximately 25%
"C=C(C)[C@@H]1CCC(C)=C[C@H]1c1c(O)cc(CCC)cc1O [CBDV, cannabidivarin]",psychoactive effects of THC,[4],diminished
same,subsequent sedation,[4],postponed and mitigated

# — patent publication US7025992B2, “Pharmaceutical formulations” (priority 2001, dated 2006)
